± gives the expanded uncertainty stated by the source.
Experiment: xn = mol fraction of the nth substance listed
Details: 100 kPa, Liquid; for speed of sound: Frequency=3 MHz, Sing-around technique in a fixed-path interferometer; for mass density: Vibrating tube method

CCC(C)=O [butanone] + CN(C)C=O
Details	mass density [kg/m3]	speed of sound [m/s]
293.15 K, x2 = 0	805.06 ± 1.9	1212.6 ± 1.2
293.15 K, x2 = 0.0482	811.508 ± 2	1224.5 ± 1.3
293.15 K, x2 = 0.1051	819.281 ± 2	1238.6 ± 1.3
293.15 K, x2 = 0.148	825.263 ± 2	1249.6 ± 1.4
293.15 K, x2 = 0.1915	831.169 ± 2	1262.8 ± 1.3
293.15 K, x2 = 0.253	839.789 ± 2	1276.1 ± 1.3
293.15 K, x2 = 0.3008	846.349 ± 2	1288.2 ± 1.4
293.15 K, x2 = 0.3386	851.673 ± 2.1	1298 ± 1.4
293.15 K, x2 = 0.3915	859.222 ± 2.1	1311.8 ± 1.4
293.15 K, x2 = 0.4887	873.095 ± 2.1	1337.4 ± 1.4
293.15 K, x2 = 0.5514	882.097 ± 2.1	1354.1 ± 1.4
293.15 K, x2 = 0.6017	889.386 ± 2.1	1367.5 ± 1.4
293.15 K, x2 = 0.6519	896.759 ± 2.2	1381.2 ± 1.4
293.15 K, x2 = 0.7023	904.135 ± 2.2	1394.9 ± 1.5
293.15 K, x2 = 0.7525	911.634 ± 2.2	1408.8 ± 1.5
293.15 K, x2 = 0.8002	918.668 ± 2.2	1421.7 ± 1.5
293.15 K, x2 = 0.8492	926.05 ± 2.2	1435.2 ± 1.5
293.15 K, x2 = 0.9032	934.175 ± 2.3	1450.2 ± 1.5
293.15 K, x2 = 0.9477	940.9 ± 2.3	1462.4 ± 1.5
298.15 K, x2 = 0	799.78 ± 1.9	1191.5 ± 1.2
298.15 K, x2 = 0.0519	806.811 ± 2	1204.4 ± 1.3
298.15 K, x2 = 0.1048	814.011 ± 2	1217.5 ± 1.3
298.15 K, x2 = 0.1506	820.379 ± 2	1229.3 ± 1.3
298.15 K, x2 = 0.1948	826.51 ± 2	1240.5 ± 1.3
298.15 K, x2 = 0.2482	834.008 ± 2	1254.4 ± 1.3
298.15 K, x2 = 0.3032	841.593 ± 2	1268.4 ± 1.3
298.15 K, x2 = 0.3543	848.769 ± 2.1	1281.6 ± 1.4
298.15 K, x2 = 0.3962	854.829 ± 2.1	1292.8 ± 1.4
298.15 K, x2 = 0.4495	862.429 ± 2.1	1306.9 ± 1.4
298.15 K, x2 = 0.4916	868.442 ± 2.1	1318 ± 1.4
298.15 K, x2 = 0.5536	877.384 ± 2.1	1334.6 ± 1.4
298.15 K, x2 = 0.5946	883.427 ± 2.1	1345.8 ± 1.4
298.15 K, x2 = 0.6572	892.579 ± 2.2	1362.3 ± 1.4
298.15 K, x2 = 0.7034	899.388 ± 2.2	1375.5 ± 1.4
298.15 K, x2 = 0.7461	905.863 ± 2.2	1387.6 ± 1.5
298.15 K, x2 = 0.7965	913.261 ± 2.2	1401.3 ± 1.5
298.15 K, x2 = 0.8488	921.083 ± 2.2	1415.8 ± 1.5
298.15 K, x2 = 0.894	928.027 ± 2.2	1428.6 ± 1.5
298.15 K, x2 = 0.9427	935.405 ± 2.3	1442.1 ± 1.5
303.15 K, x2 = 0	–	1172 ± 1.2
303.15 K, x2 = 0.0496	–	1184.6 ± 1.3
303.15 K, x2 = 0.1068	–	1199.1 ± 1.3
303.15 K, x2 = 0.1478	–	1209.5 ± 1.3
303.15 K, x2 = 0.1836	–	1218.5 ± 1.3
303.15 K, x2 = 0.2521	–	1236.4 ± 1.3
303.15 K, x2 = 0.2943	–	1248.2 ± 1.3
303.15 K, x2 = 0.3532	–	1262.8 ± 1.3
303.15 K, x2 = 0.3938	–	1273.5 ± 1.4
303.15 K, x2 = 0.4538	–	1289.4 ± 1.4
303.15 K, x2 = 0.4969	–	1301.1 ± 1.4

— the NIST ThermoML archive (doi:10.1016/j.jct.2016.02.016)
